According to ChEMBL document CHEMBL1201862, “PubChem BioAssay data set” (2004):
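Where inhibition never reached the appropriate level, the endpoint shown equals the highest concentration tested. Otherwise, values were interpolated linearly from a five-concentration, 48-hour dose response in 96-well plates. At the GI50, growth is halved.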 The source made the active and inactive calls. No stated cut-off is given here; in the data, active = GI50 up to about 1.1 µM and inactive = higher.

What was measured:
Test in all cases: NCI tumour cell line growth inhibition, 48 h
[1] = system: A549
[2] = system: HCC 2998
[3] = system: HCT-15
[4] = system: HT-29
[5] = system: K562
[6] = system: MDA-N
[7] = system: MOLT-4
[8] = system: NCI-H460
[9] = system: NCI/ADR-RES
[10] = system: OVCAR-3
[11] = system: OVCAR-4
[12] = system: PC-3
[13] = system: SF-268
[14] = system: SK-MEL-2
[15] = system: SK-MEL-5
[16] = system: SR
[17] = system: UACC-257
[18] = system: HL-60
[19] = system: Malme-3M

SMILES	GI50 [1]	GI50 [2]	GI50 [3]	GI50 [4]	GI50 [5]	GI50 [6]	GI50 [7]	GI50 [8]	GI50 [9]	GI50 [10]	GI50 [11]	GI50 [12]	GI50 [13]	GI50 [14]	GI50 [15]	GI50 [16]	GI50 [17]	GI50 [18]	GI50 [19]
COc1ccc(C2(CC(C)C)CCN(S(=O)(=O)c3ccc(C)cc3)C2)cc1OC (centres undefined)	27.2 µM (inactive)	27.6 µM (inactive)	31.7 µM	35.6 µM (inactive)	2.88 µM (inactive)	70.8 µM (inactive)	2.94 µM (inactive)	29.2 µM (inactive)	18.5 µM (inactive)	18.9 µM (inactive)	27.3 µM (inactive)	28.5 µM (inactive)	21.9 µM (inactive)	20.7 µM (inactive)	13.6 µM (inactive)	1.11 µM (active)	28.5 µM (inactive)		
COCCN(CCNC(=O)c1cccc2c(N)c3cccc(C)c3nc12)CCOC	0.692 µM (active)	0.294 µM (active)	1.82 µM	0.558 µM (active)	0.449 µM (active)	0.875 µM (active)	0.144 µM (active)	0.302 µM (active)	4.4 µM (inactive)	2 µM (inactive)	0.589 µM (active)	1 µM (active)	0.35 µM (active)	5.36 µM (inactive)	0.951 µM (active)		4.63 µM (inactive)	0.794 µM (active)	0.695 µM (active)
CCOC(=O)CC1C(C(=O)OCC)=Cn2c([nH]c3cccc4cccc2c43)=C1C(=O)OCC (centres undefined)	> 100 µM (inactive)	> 100 µM (inactive)	> 100 µM	> 100 µM (inactive)	> 100 µM (inactive)	> 100 µM (inactive)	> 100 µM (inactive)	> 100 µM (inactive)	> 100 µM (inactive)	> 100 µM (inactive)	> 100 µM (inactive)	91 µM (inactive)		> 100 µM (inactive)	33.7 µM (inactive)	> 100 µM (inactive)	> 100 µM (inactive)	25.3 µM (inactive)	
Cc1oc(N)c(S(=O)(=O)/C(C#N)=C/c2ccccc2[N+](=O)[O-])c1C	25.2 µM (inactive)	32.1 µM (inactive)	26.5 µM	19.2 µM (inactive)	18.6 µM (inactive)	20.7 µM (inactive)	22.4 µM (inactive)	31.1 µM (inactive)	27.3 µM (inactive)	21.4 µM (inactive)	38.5 µM (inactive)	23.1 µM (inactive)	31 µM (inactive)	37.2 µM (inactive)	19.2 µM (inactive)	14 µM (inactive)	32.2 µM (inactive)		33.8 µM (inactive)
COc1c(N2CCCCC2)c2c(=O)c3ccccc3oc2c2cc(C)oc12	18.2 µM (inactive)	18.5 µM (inactive)	16.7 µM	3.87 µM (inactive)	6.1 µM (inactive)	23.7 µM (inactive)	4.03 µM (inactive)	7.78 µM (inactive)	15.3 µM (inactive)	18.8 µM (inactive)	13.9 µM (inactive)	12.7 µM (inactive)	17.9 µM (inactive)	15.9 µM (inactive)	16.5 µM (inactive)		33 µM (inactive)	20.9 µM (inactive)	19.3 µM (inactive)
Nc1ccc(/N=N/c2c(S(=O)(=O)O)cc3ccccc3c2S(=O)(=O)O)cc1	> 100 µM (inactive)	> 100 µM (inactive)	> 100 µM	> 100 µM (inactive)	> 100 µM (inactive)	> 100 µM (inactive)	> 100 µM (inactive)	> 100 µM (inactive)	> 100 µM (inactive)	> 100 µM (inactive)	> 100 µM (inactive)	> 100 µM (inactive)	> 100 µM (inactive)	> 100 µM (inactive)	> 100 µM (inactive)	> 100 µM (inactive)	> 100 µM (inactive)		> 100 µM (inactive)
CCn1c2ccccc2c2nnc(NCCCO)nc21	> 100 µM (inactive)		> 100 µM	> 100 µM (inactive)	> 100 µM (inactive)	> 100 µM (inactive)	58.2 µM (inactive)	> 100 µM (inactive)	> 100 µM (inactive)	> 100 µM (inactive)	> 100 µM (inactive)	> 100 µM (inactive)	> 100 µM (inactive)	> 100 µM (inactive)	94.4 µM (inactive)	92.5 µM (inactive)	> 100 µM (inactive)	> 100 µM (inactive)	> 100 µM (inactive)
COC(=O)NC1C(C)OC(OC2C/C=C(/C)C3C=CC4C(OC5CC(OC6CC(OC7CC(O)C(O)C(C)O7)C(OC7CC(O)C(OC)C(C)O7)C(C)O6)C(O)C(C)O5)C(C)CC(C)C4C3(C)C(=O)C3=C(O)C4(CC(C)C(CO)=CC4/C=C\2C)OC3=O)CC1(C)[N+](=O)[O-] (centres undefined)	5.04 µM (inactive)	3.49 µM (inactive)	15.6 µM	7.83 µM (inactive)		14 µM (inactive)	6.15 µM (inactive)	2.06 µM (inactive)	38.7 µM (inactive)		17.5 µM (inactive)	16.3 µM (inactive)	11.6 µM (inactive)	11.6 µM (inactive)	5.22 µM (inactive)	2.71 µM (inactive)	9.89 µM (inactive)	2.54 µM (inactive)	
NC(=O)CNC(=O)[C@@H]1CC(OCCC(=O)O)CN1C(=O)C1CCCN1C(=O)OCc1ccccc1 (some centres undefined)	> 100 µM (inactive)		> 100 µM	> 100 µM (inactive)	> 100 µM (inactive)	> 100 µM (inactive)	> 100 µM (inactive)	> 100 µM (inactive)	> 100 µM (inactive)	> 100 µM (inactive)	> 100 µM (inactive)	> 100 µM (inactive)	49.2 µM (inactive)	> 100 µM (inactive)	> 100 µM (inactive)	> 100 µM (inactive)	> 100 µM (inactive)	> 100 µM (inactive)	> 100 µM (inactive)
CC(C)=CCC/C(C)=C/CC/C(C)=C/CC/C(C)=C/C=C/C=C(\C)CC/C=C(\C)CC/C=C(\C)CCC=C(C)C	60 µM (inactive)	> 100 µM (inactive)	> 100 µM	> 100 µM (inactive)	17.2 µM (inactive)	> 68.5 µM (inactive)	19.7 µM (inactive)	34.8 µM (inactive)	50.7 µM (inactive)	> 100 µM (inactive)	> 57.4 µM (inactive)	> 81.5 µM (inactive)	> 58.7 µM (inactive)	> 100 µM (inactive)	44.1 µM (inactive)		> 100 µM (inactive)	3.02 µM (inactive)	> 77.1 µM (inactive)
C=CCN1C(=O)C[C@H](Cc2ccccc2)NC(=O)C[C@H](Cc2ccccc2)N(CC=C)C(=O)C[C@H](Cc2ccccc2)NC(=O)C[C@@H]1Cc1ccccc1	4.83 µM (inactive)		12.2 µM	5.19 µM (inactive)	3.45 µM (inactive)	8.91 µM (inactive)	2.69 µM (inactive)	5.42 µM (inactive)	4.37 µM (inactive)	87.7 µM (inactive)	4.6 µM (inactive)	3.1 µM (inactive)	6.12 µM (inactive)	6.73 µM (inactive)	20.7 µM (inactive)	5.16 µM (inactive)	6.97 µM (inactive)	3.35 µM (inactive)	3.81 µM (inactive)
